Test results: patent US9540343B2 (Gilead Sciences, Inc., priority 2011, dated 2017)

What was measured:
in vitro = conditions: human, uninfected MT-4 cells, CC50 (nM), same protocol as Test A, CellTiter-Glo
Outline: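 Cytoprotection read-out: CellTiter-Glo chemiluminescence after 5 days at 37 °C of HIV-IIIb-infected MT-4 cells (m.o.i. 0.003) with compound in 10-point 3-fold dilutions, quadruplicate, 10% FBS. Cytotoxicity (CC50) measured identically without virus.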

HIV-IIIb = test: Test A: Antiviral assay in MT4 cells; format: cell-based, HIV-1; conditions: Human immunodeficiency virus 1, IIIB, MT4, 120 h, read-out: % inhibition at 2 μM, percent inhibition of virus-induced cell killing, from dose response curve at 2 uM drug; MT-4 cells infected with HIV-IIIb, 5 days, CellTiter-Glo

SMILES | CC50 at 5 days (in vitro) [nM] | inhibition at 2 µM (HIV-IIIb) [%]
O=C1Cc2cc(-c3cccnc3[C@H](Cc3cc(F)cc(F)c3)NC(=O)Cn3nc(C(F)F)c4c3C(F)(F)CCC4(F)F)ccc2N1 [Example 548D, (S)-2-(3-(difluoromethyl)-4,4,7,7-tetrafluoro-4,5,6,7-tetrahydro-1H-indazol-1-yl)-N-(2-(3,5-difluorophenyl)-1-(3-(2-oxoindolin-5-yl)pyridin-2-yl)ethyl)acetamide] | 10100 | 54
O=C(Cn1nc(C(F)F)c2c1C(F)(F)CCC2(F)F)N[C@@H](Cc1cc(F)cc(F)c1)c1ncncc1-c1cnc2[nH]ccc2c1 [Example 288, (S)—N-(1-(5-(1H-pyrrolo[2,3-b]pyridin-5-yl)pyrimidin-4-yl)-2-(3,5-difluorophenyl)ethyl)-2-(3-(difluoromethyl)-4,4,7,7-tetrafluoro-4,5,6,7-tetrahydro-1H-indazol-1-yl)acetamide] | 16400 | 108
NC(=O)c1cc(-c2cccnc2[C@H](Cc2cc(F)cc(F)c2)NC(=O)Cn2nc(C(F)(F)F)c3c2CCC3(F)F)ccc1F [Example 535G, (S)-5-(2-(1-(2-(4,4-difluoro-3-(trifluoromethyl)-5,6-dihydrocyclopenta[c]pyrazol-1(4H)-yl)acetamido)-2-(3,5-difluorophenyl)ethyl)pyridin-3-yl)-2-fluorobenzamide] | 25300 | 9
NC(=O)c1cc(-c2cccnc2[C@H](Cc2cc(F)cc(F)c2)NC(=O)Cn2c(C(F)(F)F)cc3ccccc32)ccc1F [Example 599, (S)-5-(2-(2-(3,5-difluorophenyl)-1-(2-(2-(trifluoromethyl)-1H-indol-1-yl)acetamido)ethyl)pyridin-3-yl)-2-fluorobenzamide] | 31600 | 2
NC(=O)c1cc(-c2cccnc2[C@H](Cc2cc(F)cc(F)c2)NC(=O)Cn2cc(C(F)(F)F)nc2C2CC2)ccc1F [Example 88E, (S)-5-(2-(1-(2-(2-cyclopropyl-4-(trifluoromethyl)-1H-imidazol-1-yl)acetamido)-2-(3,5-difluorophenyl)ethyl)pyridin-3-yl)-2-fluorobenzamide] | > 53200 | 44
NC(=O)c1cc(-c2cccnc2[C@H](Cc2cc(F)cc(F)c2)NC(=O)CC2C(=O)Nc3cc(F)ccc32)ccc1F (stereo partly drawn) [Example 246, 5-(2-((1S)-2-(3,5-difluorophenyl)-1-(2-(6-fluoro-2-oxoindolin-3-yl)acetamido)ethyl)pyridin-3-yl)-2-fluorobenzamide] | 47900 | 1
O=C(Cn1nc(C(F)(F)F)c2c1CCCC2)N[C@@H](Cc1cc(F)cc(F)c1)c1ncccc1-c1cccc(C(=O)NC2CC2)c1 [Example 62, (S)—N-cyclopropyl-3-(2-(2-(3,5-difluorophenyl)-1-(2-(3-(trifluoromethyl)-4,5,6,7-tetrahydro-1H-indazol-1-yl)acetamido)ethyl)pyridin-3-yl)benzamide] | 9980 | 80
Cc1ccccc1-c1cccnc1[C@H](Cc1cc(F)cc(F)c1)NC(=O)Cn1nc(C(F)(F)F)c2c1CCCC2 [Example 27, (S)—N-(2-(3,5-difluorophenyl)-1-(3-o-tolylpyridin-2-yl)ethyl)-2-(3-(trifluoromethyl)-4,5,6,7-tetrahydro-1H-indazol-1-yl)acetamide] | 12000 | 72
N#Cc1nn(CC(=O)N[C@@H](Cc2cc(F)cc(F)c2)c2ncccc2-c2ccc(F)c(C(N)=O)c2)c2c1C1CC1C2 (stereo partly drawn) [Example 242D, 5-(2-((1S)-1-(2-(3-cyano-3b,4,4a,5-tetrahydro-1H-cyclopropa[3,4]cyclopenta[1,2-c]pyrazol-1-yl)acetamido)-2-(3,5-difluorophenyl)ethyl)pyridin-3-yl)-2-fluorobenzamide] | 25500 | 97
CC(C)(C)OC(=O)NCc1ccc2c(CC(=O)N[C@@H](Cc3cc(F)cc(F)c3)c3ncccc3-c3ccc(Cl)cc3)c[nH]c2c1 [Example 526, (S)-tert-butyl (3-(2-(1-(3-(4-chlorophenyl)pyridin-2-yl)-2-(3,5-difluorophenyl)ethylamino)-2-oxoethyl)-1H-indol-6-yl)methylcarbamate] | 10000 | 50
Cc1ccccc1-c1cccnc1[C@H](Cc1cc(F)cc(F)c1)NC(=O)Cc1c[nH]c2ccc(F)cc12 [Example 109, (S)—N-(2-(3,5-difluorophenyl)-1-(3-o-tolylpyridin-2-yl)ethyl)-2-(5-fluoro-1H-indol-3-yl)acetamide] | 9080 | 50
NC(=O)c1cc(-c2cccnc2[C@H](Cc2cc(F)cc(F)c2)NC(=O)Cn2cnc3cc(Cl)c(Cl)cc32)ccc1F [Example 518, (S)-5-(2-(1-(2-(5,6-dichloro-1H-benzo[d]imidazol-1-yl)acetamido)-2-(3,5-difluorophenyl)ethyl)pyridin-3-yl)-2-fluorobenzamide] | 10500 | 11
NC(=O)c1cc(-c2cncnc2[C@H](Cc2cc(F)cc(F)c2)NC(=O)Cn2nc(C(F)F)c3c2C(F)(F)CCC3(F)F)ccc1F [Example 308, (S)-5-(4-(1-(2-(3-(difluoromethyl)-4,4,7,7-tetrafluoro-4,5,6,7-tetrahydro-1H-indazol-1-yl)acetamido)-2-(3,5-difluorophenyl)ethyl)pyrimidin-5-yl)-2-fluorobenzamide] | 39800 | 102
COc1ccc2cc(-c3cccnc3[C@H](Cc3cc(F)cc(F)c3)NC(=O)Cc3c[nH]c4ccc(F)cc34)ccc2c1 [Example 435, (S)—N-(2-(3,5-difluorophenyl)-1-(3-(6-methoxynaphthalen-2-yl)pyridin-2-yl)ethyl)-2-(5-fluoro-1H-indol-3-yl)acetamide] | 13900 | 7
NC(=O)c1cc(-c2cccnc2[C@H](Cc2cc(F)cc(F)c2)NC(=O)Cn2nc(C(=O)O)c3c2COC3)ccc1F [Example 456, (S)-1-(2-(1-(3-(3-carbamoyl-4-fluorophenyl)pyridin-2-yl)-2-(3,5-difluorophenyl)ethylamino)-2-oxoethyl)-4,6-dihydro-1H-furo[3,4-c]pyrazole-3-carboxylic acid] | > 53200 | 0
NS(=O)(=O)c1cc(-c2cccnc2[C@H](Cc2cc(F)cc(F)c2)NC(=O)Cc2c[nH]c3ccc(F)cc23)ccc1F [Example 580F, (S)—N-(2-(3,5-difluorophenyl)-1-(3-(4-fluoro-3-sulfamoylphenyl)pyridin-2-yl)ethyl)-2-(5-fluoro-1H-indol-3-yl)acetamide] | 32600 | 95
COc1ccc(-c2cccnc2[C@@H](Cc2ccccc2)NC(=O)Cn2nc(C(F)(F)F)c3c2CCCC3)c(C)c1 [Example 18, (R)—N-(1-(3-(4-methoxy-2-methylphenyl)pyridin-2-yl)-2-phenylethyl)-2-(3-(trifluoromethyl)-4,5,6,7-tetrahydro-1H-indazol-1-yl)acetamide] | 14600 | 0
O=C(Cc1c[nH]c2ccc(F)cc12)N[C@@H](Cc1cc(F)cc(F)c1)c1ncccc1-c1ccc(Cl)c(Cl)c1 [Example 396, (S)—N-(1-(3-(3,4-dichlorophenyl)pyridin-2-yl)-2-(3,5-difluorophenyl)ethyl)-2-(5-fluoro-1H-indol-3-yl)acetamide] | 10000 | 39
NC(=O)c1cccc(-c2cccnc2[C@H](Cc2cc(F)cc(F)c2)NC(=O)Cc2ccccc2)c1 [Example 501, (S)-3-(2-(2-(3,5-difluorophenyl)-1-(2-phenylacetamido)ethyl)pyridin-3-yl)benzamide] | 39600 | 11
Cc1nn(CC(=O)N[C@@H](Cc2cc(F)cc(F)c2)c2ncccc2-c2cccc(C(N)=O)c2)c2cc(O)ccc12 [Example 306C, (S)-3-(2-(2-(3,5-difluorophenyl)-1-(2-(6-hydroxy-3-methyl-1H-indazol-1-yl)acetamido)ethyl)pyridin-3-yl)benzamide] | 41600 | 10
CCCCNS(=O)(=O)c1ccc(-c2cccnc2[C@H](Cc2cc(F)cc(F)c2)NC(=O)Cn2nc(C(F)F)c3c2C(F)(F)C2CC32)cc1 (stereo partly drawn) [Example 393, (S)—N-(1-(3-(4-(N-butylsulfamoyl)phenyl)-pyridin-2-yl)-2-(3,5-difluorophenyl)ethyl)-2-(3-(difluoromethyl)-5,6-dihydro-4,5-(methano)-6,6-difluoro-cyclopenta[c]pyrazol-1(4H)-yl)acetamide] | 26100 | 54
NC(=O)c1cc(-c2cccnc2[C@H](Cc2cc(F)cc(F)c2)NC(=O)COc2ccccc2)ccc1F [Example 164, (S)-5-(2-(2-(3,5-difluorophenyl)-1-(2-phenoxyacetamido)ethyl)pyridin-3-yl)-2-fluorobenzamide] | 29900 | 2
Cc1cc(-c2cccnc2[C@H](Cc2cc(F)cc(F)c2)NC(=O)Cc2c[nH]c3ccc(F)cc23)cnc1F [Example 419] | 27100 | 42
O=C(Cn1nc(C(F)F)c2c1C(F)(F)C1CC21)N[C@@H](Cc1cc(F)cc(F)c1)c1ncccc1-c1ccc2ccncc2c1 (stereo partly drawn) [Example 104, (S)—N-(1-(3-(isoquinolin-7-yl)-pyridin-2-yl)-2-(3,5-difluorophenyl)ethyl)-2-(3-(difluoromethyl)-5,6-dihydro-4,5-(methano)-6,6-difluoro-cyclopenta[c]pyrazol-1(4H)-yl)acetamide] | 15700 | 32
NC(=O)c1cc(-c2cccnc2[C@H](Cc2cccc(F)c2)NC(=O)CN2CC(=O)Nc3ccccc32)ccc1F [Example 264, (S)-2-fluoro-5-(2-(2-(3-fluorophenyl)-1-(2-(3-oxo-3,4-dihydroquinoxalin-1(2H)-yl)acetamido)ethyl)pyridin-3-yl)benzamide] | > 53200 | 24
